Values quoted from earlier work as cited in patent publication US12059506B2, “Coated implantable device” (NOBIL BIO RICERCHE S.R.L., priority 2017, dated 2024).

Settings: aqueous phase

**Q.** Which “solubility in water” value does the source give for `C[C@@H]1O[C@@H](Oc2c(-c3ccc(O)c(O)c3)oc3cc(O)cc(O)c3c2=O)[C@H](O)[C@H](O)[C@H]1O` [quercitrin] here?
**A.** insoluble
